This experiment concerns P388 leukemia ip, CD2F1 mice, survival T/C. As to the kind of experiment: NCI In Vivo Anticancer Drug Screen. Data for tumor model P388 Leukemia (intraperitoneal) in CD2F1 (CDF1) mice. As to conditions: endpoint: median survival time, higher = longer survival. The method, boiled down:
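Mice carrying the transplanted tumor received test compound or vehicle. Survival was recorded in each group, and the value is the treated-group measurement divided by that of the vehicle-treated control group.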

Where [1] appears, read: dose: 50.0 mg/kg/injection, schedule: Q01DX009 (ip), vehicle: saline.
The mark [2] stands for this setting: dose: 100.0 mg/kg/injection, schedule: Q01DX009 (ip), vehicle: saline.
[3] abbreviates: dose: 200.0 mg/kg/injection, schedule: Q01DX009 (ip), vehicle: saline.
[4] abbreviates: dose: 50.0 mg/kg/injection, schedule: Q01DX005 (ip), vehicle: saline with Tween-80.
Setting [5] is: dose: 100.0 mg/kg/injection, schedule: Q01DX005 (ip), vehicle: saline with Tween-80.
The mark [6] stands for this setting: dose: 200.0 mg/kg/injection, schedule: Q01DX005 (ip), vehicle: saline with Tween-80.
[7] abbreviates: dose: 50.0 mg/kg/injection, schedule: Q01DX005 (ip), vehicle: Klucel (hydroxypropylcellulose) (HPC).
Where [8] appears, read: dose: 100.0 mg/kg/injection, schedule: Q01DX005 (ip), vehicle: Klucel (hydroxypropylcellulose) (HPC).
The mark [9] stands for this setting: dose: 200.0 mg/kg/injection, schedule: Q01DX005 (ip), vehicle: Klucel (hydroxypropylcellulose) (HPC).
Where [10] appears, read: dose: 50.0 mg/kg/injection, schedule: Q01DX009 (ip), vehicle: saline with Tween-80.
The mark [11] stands for this setting: dose: 100.0 mg/kg/injection, schedule: Q01DX009 (ip), vehicle: saline with Tween-80.
[12] abbreviates: dose: 200.0 mg/kg/injection, schedule: Q01DX009 (ip), vehicle: saline with Tween-80.

Inconclusive results and toxic doses are left out.

In the case of `C=CCC(C(=O)OC)c1ccccc1` (stereo not given), the T/C (dose: 0.4 mg/kg/injection, schedule: Q01DX009 (ip), vehicle: saline with Tween-80) is 99 % of control; the T/C (dose: 0.8 mg/kg/injection, schedule: Q01DX009 (ip), vehicle: saline with Tween-80) is 98 % of control; the T/C (dose: 1.6 mg/kg/injection, schedule: Q01DX009 (ip), vehicle: saline with Tween-80) is 104 % of control.
As for `C=C1COC(=O)[C@@]12CC[C@@]1(C)[C@@H](CC[C@@H]3[C@@H]1CC[C@]1(C)C([C@H](C)CCCC(C)C)CC[C@@H]31)C2` (stereo not given in full), the T/C was 96 % of control (dose: 100.0 mg/kg/injection, schedule: Q01DX001 (ip), vehicle: saline with Tween-80); 93 % of control (dose: 200.0 mg/kg/injection, schedule: Q01DX001 (ip), vehicle: saline with Tween-80); 91 % of control (dose: 400.0 mg/kg/injection, schedule: Q01DX001 (ip), vehicle: saline with Tween-80).
Turning to `COc1ccc(C)cc1NC(=O)/N=C1/NC(=O)CS1`, the T/C was 91 % of control under setting [1], 97 % of control under setting [2] and 91 % of control under setting [3].
As to `Cc1ccc(S(=O)(O)=S)cc1`, the T/C reads like this: under setting [1], 101 % of control; under setting [2], 107 % of control; (dose: 100.0 mg/kg/injection, schedule: Q04DX002 (ip), vehicle: saline) 105 % of control; under setting [3], 115 % of control; (dose: 200.0 mg/kg/injection, schedule: Q04DX002 (ip), vehicle: saline) 101 % of control; (dose: 400.0 mg/kg/injection, schedule: Q04DX002 (ip), vehicle: saline) 102 % of control.
As for `Cc1ccccc1N1C(=O)C(C)(C)OC1=S`, the T/C runs as follows: under setting [4], 97 % of control; under setting [5], 99 % of control; under setting [6], 103 % of control.
As to `CCCCN(CCCC)c1nn[nH]n1`, the T/C is 89 % of control under setting [7], 94 % of control under setting [8] and 95 % of control under setting [9].
On to `C/C1=C\C(=O)OCC23CC(O)C4(C)OC4C2OC2CC(OC(=O)/C=C/C=C/C(C(C)O)OCC1O)C3(C)C21CO1` (stereo not given), for which the T/C by setting is: (dose: 1.25 mg/kg/injection, schedule: Q01DX005 (ip), vehicle: saline + alcohol) 120 % of control; (dose: 2.5 mg/kg/injection, schedule: Q01DX005 (ip), vehicle: saline + alcohol) 120 % of control; (dose: 5.0 mg/kg/injection, schedule: Q01DX005 (ip), vehicle: saline + alcohol) 155 % of control; (dose: 10.0 mg/kg/injection, schedule: Q01DX005 (ip), vehicle: saline + alcohol) 172 % of control.
With `CN1CCc2c1n(-c1ccccc1)c(=S)n(-c1ccccc1)c2=S`, the T/C is, setting by setting: under setting [7], 107 % of control; under setting [8], 100 % of control; under setting [9], 98 % of control.
For `O=C(NCC1CC1)NC(=O)c1c(F)cccc1Cl`, the T/C (dose: 60.0 mg/kg/injection, schedule: Q01DX005 (ip), vehicle: Klucel (hydroxypropylcellulose) (HPC)) is 102 % of control; the T/C (dose: 120.0 mg/kg/injection, schedule: Q01DX005 (ip), vehicle: Klucel (hydroxypropylcellulose) (HPC)) was 106 % of control; the T/C (dose: 240.0 mg/kg/injection, schedule: Q01DX005 (ip), vehicle: Klucel (hydroxypropylcellulose) (HPC)) is 106 % of control.
Turning to `CCN(CC)c1csc2c3ccccc3nc(C)[n+]12`, the T/C runs as follows: (dose: 100.0 mg/kg/injection, schedule: Q04DX003 (ip), vehicle: saline + Tween-80 + alcohol) 104 % of control; (dose: 200.0 mg/kg/injection, schedule: Q04DX003 (ip), vehicle: saline + Tween-80 + alcohol) 94 % of control; (dose: 400.0 mg/kg/injection, schedule: Q04DX003 (ip), vehicle: saline + Tween-80 + alcohol) 105 % of control.
In the case of `CCCNNC(=O)c1ccncc1`, the T/C was 100 % of control under setting [4], 96 % of control under setting [5] and 105 % of control under setting [6].
Take `O=S1(=O)c2cccc(c2)NC(=S)/C([n+]2ccccc2)=C(/[O-])c2ccc(cc2)CC2CCCCN21` (stereo not given): the T/C by setting is: under setting [7], 94 % of control; under setting [8], 87 % of control.
With `O=C(c1ccccc1)c1cnc2ccccc2c1`, the T/C by setting is: under setting [7], 101 % of control; under setting [8], 101 % of control; under setting [9], 104 % of control.
As to `Cc1cc(N(CCO)CCO)c2ccc3ccccc3c2n1`, the T/C is 101 % of control under setting [10], 108 % of control under setting [11] and 97 % of control under setting [12].
Take `O=C(NC1CCCCC1NC(=O)C12CC3CC(CC(C3)C1)C2)C12CC3CC(CC(C3)C1)C2` (stereo not given): the T/C was 95 % of control (dose: 6.0 mg/kg/injection, schedule: Q01DX005 (ip), vehicle: Klucel (hydroxypropylcellulose) (HPC)); 88 % of control (dose: 12.0 mg/kg/injection, schedule: Q01DX005 (ip), vehicle: Klucel (hydroxypropylcellulose) (HPC)); 88 % of control under setting [7]; 92 % of control under setting [9].
Regarding `COc1ccc(C(C#N)C(=O)C(=O)Nc2ccc(Cl)cc2C)cc1OC` (stereo not given), the T/C was 100 % of control (dose: 60.0 mg/kg/injection, schedule: Q01DX005 (ip), vehicle: saline with Tween-80); 100 % of control (dose: 120.0 mg/kg/injection, schedule: Q01DX005 (ip), vehicle: saline with Tween-80); 105 % of control (dose: 240.0 mg/kg/injection, schedule: Q01DX005 (ip), vehicle: saline with Tween-80).
With `CC1(C(Cl)(Cl)Cl)C=CC(=O)C=C1`, the T/C reads like this: under setting [10], 99 % of control; under setting [11], 107 % of control; under setting [12], 99 % of control.

Source of the values: PubChem BioAssay AID330 (DTP/NCI, 2004).
